Patent publication US11912790B2, “Peptide compounds and therapeutic uses of same” (Immunity Pharma Ltd., priority 2018, dated 2024)
“Also recorded” adds a separate entry of the source. No end group written: not given here.

Key:
BALB/c mice [1] = assay: Dexamethasone-induced spleen and thymus weight and cell count loss in mice, Example 2 (FIG. 2); format: in vivo; settings: 100 μg Dexamethasone IP, peptide IV 200 μg/mouse immediately and 24 h after, sacrifice at 48 h
Description: BALB/c mice were used to examine the ability of candidate peptides to rescue lymphocyte cells from apoptosis. Mice were injected IP with 100 μg of Dexamethasone. Dexamethasone-treated mice received immediately following and 24-hours after dexamethasone treatment IV injection of candidate peptides (200 μg peptide/mouse). Mice were sacrificed 48 hours after the first treatment. The spleen and the thymus were weighted and full cell count of both organs was performed.

BALB/c mice [2] = assay: Dexamethasone-induced spleen and thymus weight and cell count loss in mice, Example 1 (FIG. 1); format: in vivo, mouse; settings: 100 μg Dexamethasone IP; for reduction of cell count loss (spleen and thymus) / reduction of the amount of dexamethasone-induced spleen and/or thymus weight loss: BALB/c mice, peptide IV 250 or 400 μg/mouse immediately and 24 h after, sacrifice at 48 h, no difference between the 2 doses
Description: The peptides described herein are capable of reducing the amount of dexamethasone-induced spleen and/or thymus weight loss in a mouse—e.g. following injection (IP) with 100 μg of Dexamethasone.
Dexamethasone is a corticosteroid medication that induces apoptosis of immune cells and lymphomyeloid tissues. BALB/c mice were used to examine the ability of candidate peptides to rescue lymphocyte cells from apoptosis. Mice were injected IP with 100 μg of Dexamethasone. Dexamethasone-treated mice received immediately following and 24-hours after dexamethasone treatment IV injection of candidate peptides (250 or 400 μg peptide/mouse). Mice were sacrificed 48 hours after the first treatment. The spleen and the thymus were weighted and full cell count of both organs was performed.

## PPLAYP [SEQ ID NO: 18]
BALB/c mice [1]
  reduction of the amount of dexamethasone-induced spleen and/or thymus weight loss: significant improvement

## PPLPY (not fully specified (C-terminus)) [SEQ ID NO: 3]
BALB/c mice [2]
  reduction of cell count loss (spleen and thymus): significant effect
  reduction of the amount of dexamethasone-induced spleen and/or thymus weight loss: significant effect; also recorded: significantly reduced

## LPPLAYP [SEQ ID NO: 4]
BALB/c mice [2]
  reduction of cell count loss (spleen and thymus): significant effect
  reduction of the amount of dexamethasone-induced spleen and/or thymus weight loss: significant effect; also recorded: significantly reduced

## C[C@@H]1C[C@H]2[C@@H]3CCC4=CC(=O)C=C[C@]4(C)[C@@]3(F)[C@@H](O)C[C@]2(C)[C@@]1(O)C(=O)CO [Dexamethasone, reference compound]
BALB/c mice [2]; 48 h, compared to normal mice
  spleen and thymus weight loss and reduction in spleen cell count induced by dexamethasone: about 50%
  thymus cell count reduction induced by dexamethasone: ~80%
